Results as given in ChEMBL document CHEMBL5034010, “Novel Cephalosporin Conjugates Display Potent and Selective Inhibition of Imipenemase-Type Metallo-β-Lactamases” (J Med Chem, 2021).
Converted amounts (≈) assume the structure as drawn. The source made the active and inactive calls. No cut-off for these calls is given here.

Columns and labels:
[1] = test system: Klebsiella pneumoniae; experiment: Inhibition of Metallo-beta-lactamase IMP-28 in Klebsiella pneumoniae clinical isolate assessed as MIC for meropenem antibacterial activity at 32 ug/ml (reference value: 4 ug/ml); settings: dose 32.0 µg/ml
[2] = test system: Klebsiella pneumoniae; experiment: Inhibition of Metallo-beta-lactamase IMP-28 in Klebsiella pneumoniae clinical isolate assessed as MIC for meropenem antibacterial activity at 64 ug/ml (reference value: 4 ug/ml); settings: dose 64.0 µg/ml
[3] = test system: Klebsiella pneumoniae; experiment: Inhibition of Metallo-beta-lactamase IMP-28 in Klebsiella pneumoniae clinical isolate assessed as MIC for meropenem antibacterial activity at 128 ug/ml (reference value: 4 ug/ml); settings: dose 128.0 µg/ml
[4] = test system: Escherichia coli; experiment: Inhibition of Metallo-beta-lactamase VIM-2 in Escherichia coli clinical isolate assessed as MIC for meropenem antibacterial activity at 32 ug/ml (reference value: 8 ug/ml); settings: dose 32.0 µg/ml
[5] = test system: Escherichia coli; experiment: Inhibition of Metallo-beta-lactamase VIM-2 in Escherichia coli clinical isolate assessed as MIC for meropenem antibacterial activity at 64 ug/ml (reference value: 8 ug/ml); settings: dose 64.0 µg/ml
[6] = test system: Escherichia coli; experiment: Inhibition of Metallo-beta-lactamase VIM-2 in Escherichia coli clinical isolate assessed as MIC for meropenem antibacterial activity at 128 ug/ml (reference value: 8 ug/ml); settings: dose 128.0 µg/ml
[7] = test system: Escherichia coli; experiment: Inhibition of Metallo-beta-lactamase NDM-1 in Escherichia coli clinical isolate assessed as MIC for meropenem antibacterial activity at 32 ug/ml (reference value: 32 ug/ml); settings: dose 32.0 µg/ml
[8] = test system: Escherichia coli; experiment: Inhibition of Metallo-beta-lactamase NDM-1 in Escherichia coli clinical isolate assessed as MIC for meropenem antibacterial activity at 64 ug/ml (reference value: 32 ug/ml); settings: dose 64.0 µg/ml
[9] = test system: Escherichia coli; experiment: Inhibition of Metallo-beta-lactamase NDM-1 in Escherichia coli clinical isolate assessed as MIC for meropenem antibacterial activity at 128 ug/ml (reference value: 32 ug/ml); settings: dose 128.0 µg/ml
[10] = test system: Enterobacter cloacae; experiment: Inhibition of Metallo-beta-lactamase IMP-1 in Enterobacter cloacae clinical isolate assessed as MIC for meropenem antibacterial activity at 32 ug/ml (reference value: 32 ug/ml); settings: dose 32.0 µg/ml
[11] = test system: Enterobacter cloacae; experiment: Inhibition of Metallo-beta-lactamase IMP-1 in Enterobacter cloacae clinical isolate assessed as MIC for meropenem antibacterial activity at 64 ug/ml (reference value: 32 ug/ml); settings: dose 64.0 µg/ml
[12] = test system: Enterobacter cloacae; experiment: Inhibition of Metallo-beta-lactamase IMP-1 in Enterobacter cloacae clinical isolate assessed as MIC for meropenem antibacterial activity at 128 ug/ml (reference value: 32 ug/ml); settings: dose 128.0 µg/ml
[13] = Stability of the compound in Muller hinton broth assessed compound remaining measured after 15 hrs by HPLC analysis; format: physicochemical; settings: Mueller Hinton broth, read-out: Stability
[14] = test system: Enterobacter cloacae; experiment: Antibacterial activity against beta-lactamase IMP1 producing Enterobacter cloacae clinical isolate measured upto 128 ug/ml; format: functional, organism-based
[15] = test system: Klebsiella pneumoniae; experiment: Antibacterial activity against beta-lactamase IMP-28 producing Klebsiella pneumoniae clinical isolate measured upto 128 ug/ml; format: functional, organism-based
[16] = test system: Escherichia coli; experiment: Antibacterial activity against beta-lactamase VIM2 producing Escherichia coli clinical isolate measured upto 128 ug/ml; format: functional, organism-based
[17] = Inhibition of Enterobacter cloacae IMP-1 using nitrocefin chromogenic substrate measured after 15 to 60 min at 25 degC by microplate reader
[18] = Inhibition of Klebsiella pneumoniae beta-lactamase IMP-28 using nitrocefin chromogenic substrate measured after 15 to 60 min at 25 degC by microplate reader
[19] = Inhibition of Escherichia coli beta-lactamase NDM-1 using nitrocefin chromogenic substrate measured after 15 to 60 min at 25 degC by microplate reader
[20] = Inhibition of Escherichia coli beta-lactamase VIM-2 using nitrocefin chromogenic substrate measured after 15 to 60 min at 25 degC by microplate reader
[21] = test system: Escherichia coli; experiment: Substrate activity at Escherichia coli beta-lactamase NDM-1 assessed as compound hydrolysis by measuring Km by Michaelis-Menten analysis
[22] = test system: Escherichia coli; experiment: Substrate activity at Escherichia coli beta-lactamase VIM-2 assessed as compound hydrolysis by measuring Km by Michaelis-Menten analysis
[23] = test system: Klebsiella pneumoniae; experiment: Substrate activity at Klebsiella pneumoniae beta-lactamase IMP-28 assessed as compound hydrolysis by measuring Km by Michaelis-Menten analysis
[24] = test system: Escherichia coli; experiment: Substrate activity at Escherichia coli beta-lactamase NDM-1 assessed as compound hydrolysis by measuring Kcat by Michaelis-Menten analysis
[25] = test system: Escherichia coli; experiment: Substrate activity at Escherichia coli beta-lactamase VIM-2 assessed as compound hydrolysis by measuring Kcat by Michaelis-Menten analysis
[26] = test system: Klebsiella pneumoniae; experiment: Substrate activity at Klebsiella pneumoniae beta-lactamase IMP-28 assessed as compound hydrolysis by measuring Kcat by Michaelis-Menten analysis
[27] = test system: Escherichia coli; experiment: Substrate activity at Escherichia coli beta-lactamase NDM-1 assessed as compound hydrolysis by measuring kcat/km by Michaelis-Menten analysis
[28] = test system: Escherichia coli; experiment: Substrate activity at Escherichia coli beta-lactamase VIM-2 assessed as compound hydrolysis by measuring Kcat/Km by Michaelis-Menten analysis
[29] = test system: Klebsiella pneumoniae; experiment: Substrate activity at Klebsiella pneumoniae beta-lactamase IMP-28 assessed as compound hydrolysis by measuring Kcat/Km by Michaelis-Menten analysis
[30] = Stability of the compound assessed as Klebsiella pneumoniae beta-lactamase IMP-28-mediated degradation by measuring appearance of vinyl protons release measured after 120 mins by NMR spectra; format: ADME; settings: 2 h
[31] = test system: Enterobacter cloacae; experiment: Inhibition of Enterobacter cloacae Metallo-beta-lactamase IMP-1
[32] = test system: Klebsiella pneumoniae; experiment: Inhibition of Klebsiella pneumoniae beta Metallo-beta-lactamase IMP-28
[33] = test system: Enterobacter cloacae; experiment: Inhibition of Metallo-beta-lactamase IMP-1 in Enterobacter cloacae clinical isolate assessed as fold reduction in meropenem MIC at 32 ug/ml; settings: dose 32.0 µg/ml
[34] = test system: Enterobacter cloacae; experiment: Inhibition of Metallo-beta-lactamase IMP-1 in Enterobacter cloacae clinical isolate assessed as fold reduction in meropenem MIC at 64 ug/ml; settings: dose 64.0 µg/ml
[35] = test system: Enterobacter cloacae; experiment: Inhibition of Metallo-beta-lactamase IMP-1 in Enterobacter cloacae clinical isolate assessed as fold reduction in meropenem MIC at 128 ug/ml; settings: dose 128.0 µg/ml
[36] = test system: Klebsiella pneumoniae; experiment: Inhibition of Metallo-beta-lactamase IMP-28 in Klebsiella pneumoniae clinical isolate assessed as fold reduction in meropenem MIC at 32 ug/ml; settings: dose 32.0 µg/ml
[37] = test system: Klebsiella pneumoniae; experiment: Inhibition of Metallo-beta-lactamase IMP-28 in Klebsiella pneumoniae clinical isolate assessed as fold reduction in meropenem MIC at 64 ug/ml; settings: dose 64.0 µg/ml
[38] = test system: Klebsiella pneumoniae; experiment: Inhibition of Metallo-beta-lactamase IMP-28 in Klebsiella pneumoniae clinical isolate assessed as fold reduction in meropenem MIC at 128 ug/ml; settings: dose 128.0 µg/ml
[39] = test system: Escherichia coli; experiment: Inhibition of Metallo-beta-lactamase VIM-2 in Escherichia coli clinical isolate assessed as fold reduction in meropenem MIC at 32 ug/ml; settings: dose 32.0 µg/ml
[40] = test system: Escherichia coli; experiment: Inhibition of Metallo-beta-lactamase VIM-2 in Escherichia coli clinical isolate assessed as fold reduction in meropenem MIC at 64 ug/ml; settings: dose 64.0 µg/ml
[41] = test system: Escherichia coli; experiment: Inhibition of Metallo-beta-lactamase VIM-2 in Escherichia coli clinical isolate assessed as fold reduction in meropenem MIC at 128 ug/ml; settings: dose 128.0 µg/ml
[42] = test system: Escherichia coli; experiment: Inhibition of Metallo-beta-lactamase NDM-1 in Escherichia coli clinical isolate assessed as fold reduction in meropenem MIC at 32 ug/ml; settings: dose 32.0 µg/ml
[43] = test system: Escherichia coli; experiment: Inhibition of Metallo-beta-lactamase NDM-1 in Escherichia coli clinical isolate assessed as fold reduction in meropenem MIC at 64 ug/ml; settings: dose 64.0 µg/ml
[44] = test system: Escherichia coli; experiment: Inhibition of Metallo-beta-lactamase NDM-1 in Escherichia coli clinical isolate assessed as fold reduction in meropenem MIC at 128 ug/ml; settings: dose 128.0 µg/ml
[45] = test system: Escherichia coli; experiment: Antibacterial activity against beta-lactamase NDM1 producing Escherichia coli clinical isolate measured upto 128 ug/ml; format: functional, organism-based
[46] = Metabolic stability of the compound assessed as Klebsiella pneumoniae beta-lactamase IMP-28-mediated metabolism by (2R)-2-((R)-carboxy(2-phenylacetamido)methyl)-5-((carboxy(phenyl)methylthio)methyl)-5,6-dihydro-2H-1,3-thiazine-4-carboxylic acid by LC-MS analysis; format: ADME
[47] = Metabolic stability of the compound assessed as Klebsiella pneumoniae beta-lactamase IMP-28-mediated metabolism by (2R)-2-((R)-carboxy(2-phenylacetamido)methyl)-5-(((R)-carboxy(phenyl)methylthio)methyl)-5,6-dihydro-2H-1,3-thiazine-4-carboxylic acid by LC-MS analysis; format: ADME

In the case of O=C(Cc1ccccc1)N[C@@H]1C(=O)N2C(C(=O)O)=C(CSC(C(=O)O)c3ccccc3)CS[C@H]12 (some centres not stated), the MIC [1] is reported as < 0.063 µg/mL, the MIC [2] is reported as < 0.063 µg/mL and the MIC [3] is reported as < 0.063 µg/mL. The MIC [4] was 4 µg/mL (≈ 8.02 µM), the MIC [5] was 2 µg/mL (≈ 4.01 µM) and the MIC [6] was 1 µg/mL (≈ 2.01 µM). The MIC [7] was 16 µg/mL (≈ 32.1 µM), the MIC [8] was 16 µg/mL (≈ 32.1 µM) and the MIC [9] was 8 µg/mL (≈ 16 µM). For the same compound, the MIC [10] was 1 µg/mL (≈ 2.01 µM), the MIC [11] was 0.5 µg/mL (≈ 1 µM) and the MIC [12] was 0.5 µg/mL (≈ 1 µM). The remaining at 15 h [13] was > 95%, the Activity [14] was “inactive” and the Activity [15] was “inactive”. For the same compound, the Activity [16] was “inactive”, the IC50 [17] was 0.47 µM and the IC50 [18] was 0.46 µM. For the same compound, the IC50 [19] was > 100 µM, the IC50 [20] was 10 µM and the Km [21] was 14 µM. The Km [22] was 8.28 µM, the Km [23] was 129 µM and the kcat [24] was 13.1 s⁻¹. For the same compound, the kcat [25] was 4.06 s⁻¹, the kcat [26] was 0.386 s⁻¹ and the kcat/Km [27] was 936000 M⁻¹ s⁻¹. The kcat/Km [28] was 490000 M⁻¹ s⁻¹, the kcat/Km [29] was 3000 M⁻¹ s⁻¹ and the Stability [30] was “Stable”. For the same compound, the inhibition [31] was “Active”, the inhibition [32] was “Active” and the fold change (FC) [33] was 32. For the same compound, the fold change (FC) [34] was 64, the fold change (FC) [35] was 64 and the fold change (FC) [36] was > 64. The fold change (FC) [37] was > 64, the fold change (FC) [38] was > 64 and the fold change (FC) [39] was 2. For the same compound, the fold change (FC) [40] was 4, the fold change (FC) [41] was 8 and the fold change (FC) [42] was 2. The fold change (FC) [43] was 2, the fold change (FC) [44] was 4 and the Activity [45] was “inactive”. The Drug metabolism [46] was “Metabolite_Detected”.
In the case of O=C(Cc1ccccc1)N[C@@H]1C(=O)N2C(C(=O)O)=C(CS[C@H](Cc3ccccc3)C(=O)O)CS[C@H]12, the MIC [1] is reported as < 0.063 µg/mL, the MIC [2] is reported as < 0.063 µg/mL and the MIC [3] is reported as < 0.063 µg/mL. For the same compound, the MIC [4] was 4 µg/mL (≈ 7.8 µM), the MIC [5] was 4 µg/mL (≈ 7.8 µM) and the MIC [6] was 2 µg/mL (≈ 3.9 µM). It also gave an MIC [7] of 16 µg/mL (≈ 31.2 µM), an MIC [8] of 8 µg/mL (≈ 15.6 µM) and an MIC [9] of 8 µg/mL (≈ 15.6 µM). The MIC [10] was 1 µg/mL (≈ 1.95 µM), the MIC [11] was 1 µg/mL (≈ 1.95 µM) and the MIC [12] was 0.5 µg/mL (≈ 0.975 µM). The remaining at 15 h [13] was > 95%, the Activity [14] was “inactive” and the Activity [15] was “inactive”. For the same compound, the Activity [16] was “inactive”, the IC50 [17] was 4.7 µM and the IC50 [18] was 1.1 µM. It also gave an IC50 [19] of 94 µM, an IC50 [20] of 16 µM and a Km [21] of 21.2 µM. For the same compound, the Km [22] was 4.3 µM, the Km [23] was 249 µM and the kcat [24] was 17.4 s⁻¹. The kcat [25] was 2.35 s⁻¹, the kcat [26] was 2.83 s⁻¹ and the kcat/Km [27] was 821000 M⁻¹ s⁻¹. For the same compound, the kcat/Km [28] was 546000 M⁻¹ s⁻¹, the kcat/Km [29] was 11000 M⁻¹ s⁻¹ and the Stability [30] was “Stable”. For the same compound, the inhibition [31] was “Active”, the inhibition [32] was “Active” and the fold change (FC) [33] was 32. For the same compound, the fold change (FC) [34] was 32, the fold change (FC) [35] was 64 and the fold change (FC) [36] was > 64. The fold change (FC) [37] was > 64, the fold change (FC) [38] was > 64 and the fold change (FC) [39] was 2. It also gave a fold change (FC) [40] of 2, a fold change (FC) [41] of 4 and a fold change (FC) [42] of 2. For the same compound, the fold change (FC) [43] was 4, the fold change (FC) [44] was 4 and the Activity [45] was “inactive”. For the same compound, the Drug metabolism [47] was “Metabolite_Detected”.
